The values that follow come from patent publication US20030068611A1, “Methods for increasing microbial metabolic efficiency through regulation of oxidative stress” (priority 2001, published 2003).

SMILES strings stand for the structures.

Common to all, as to assay type: cell-based, E. coli
One test deals with MC4100oxyR2. Briefly: resistance to organic solvent, tetralin overlay on LB plate, oxyR2 mutant. The following applies: oxyR2 mutant strain; 5 mm depth tetralin overlay on LB agar; overnight at 37° C. As for the experimental part:
(§1) Wild type MC4100/oxyR^+ and MC4100oxyR2 mutants were streaked onto the same LB plate made with a 80 mm diameter PYREX Petri dish (VWR International, West Chester, Pa.). Solvent tetralin (1,2,3,4-tetrahydronaphthalene) was then poured onto the LB agar surface to have a 5 mm depth of overlay. The plate was then covered with a Petri dish cover and sealed with a strip of parafilm (American National Can, Chicago, Ill.), and put into 37° C. incubator. After overnight culturing, tetralin was decanted and the plate was put into a fume hood for 30 min to allow evaporation of the remaining tetralin. A picture of the plate was taken with an Eagle Eye® II still imaging system (Stratagene, La Jolla, Calif.).

The subject of the next test is MC4100/oxyR^+. The test is described as follows: resistance to organic solvent, tetralin overlay on LB plate, wild type. The following applies: wild type strain (oxyR^+); 5 mm depth tetralin overlay on LB agar; overnight at 37° C. On the procedure: as §1
A further test concerns wild type. The following applies: 10 microliters of 30% hydrogen peroxide or cumene hydroperoxide on 1/4 in filter disc on LB plate, 24 h at 37° C., typical numbers.
For the next test, the system named is oxyR2. The following applies: 10 microliters of 30% hydrogen peroxide or cumene hydroperoxide on 1/4 in filter disc on LB plate, 24 h at 37° C., typical numbers.

`c1ccc2c(c1)CCCC2` [tetralin, 1,2,3,4-tetrahydronaphthalene]: the figures for the “colony growth under solvent overlay” value with MC4100oxyR2 and with MC4100/oxyR^+ were “grew just fine” and “No colony was observed”, respectively.
Consider `OO` [Hydrogen peroxide], for which the “Diameter of the zone killed” value in the test with wild type amounted to 25 mm; with oxyR2, 13 mm.
